Data reported in patent US10723711B2, “1,1,1-trifluoro-3-hydroxypropan-2-yl carbamate derivatives and 1,1,1-trifluoro-4-hydroxybutan-2-yl carbamate derivatives as MAGL inhibitors” (PFIZER INC., priority 2015, dated 2020).
pIC50: −log10 of the molar value. Read-outs that look alike come from different tables or passages of the source.

Tests used:
Format in all cases: biochemical
[1] = target: T1, human recombinant Monoacylglycerol Lipase (Homo sapiens, UniProt Q99685); assay: MAGL inhibition enzymatic assay, fluorogenic substrate 7-HCA, IC50 at T=0 min or after 30 minute incubation (T=30 min); settings: geometric mean of 2-4 determinations unless otherwise indicated
T1 sequence (Q99685 1-303): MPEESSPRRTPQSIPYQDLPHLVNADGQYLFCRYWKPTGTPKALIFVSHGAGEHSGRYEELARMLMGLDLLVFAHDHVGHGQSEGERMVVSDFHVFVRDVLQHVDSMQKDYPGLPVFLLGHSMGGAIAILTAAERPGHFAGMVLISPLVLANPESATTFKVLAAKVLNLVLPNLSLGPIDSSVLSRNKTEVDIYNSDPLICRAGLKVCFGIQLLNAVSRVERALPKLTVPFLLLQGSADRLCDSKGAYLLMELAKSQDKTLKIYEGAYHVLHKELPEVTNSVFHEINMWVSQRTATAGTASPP
Protocol: An equal volume of 7-HCA in assay buffer with 10% DMSO was added either immediately (T=0 min) or after a 30 minute incubation (T=30 min) to initiate the reaction. […] After these dilutions, the final concentration of the test compound ranged from 3 μM to 0.03 nM. […] IC50 values were generated based on a four parameter fit model using ABASE software from IDBS.

[2] = target: T1, human recombinant Monoacylglycerol Lipase; assay: MAGL inactivation, enzyme progress curves, kinact/KI; settings: from enzyme progress curves, T = 0 min protocol; geometric mean of 2-4 determinations unless otherwise indicated
Method in brief: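 Human recombinant MAGL ([…]) with compound, 7-HCA substrate (final 5 μM) added immediately (T=0 min), in pH 7.4 HEPES buffer with 0.1% Triton X-100 and 25% glycerin. Fluorescence (Ex/Em 340/465) was read every minute over 60 min, giving progress curves at decreasing compound concentrations (final 3 μM to 0.03 nM).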

human recombinant FAAH = target: T2, human recombinant FAAH (Homo sapiens, UniProt O00519); assay: FAAH inhibition enzymatic assay, fluorescent substrate Arachidonoyl-AMC, 30 minute incubation; settings: T = 30 min (30 minute incubation); geometric mean of 2-4 determinations unless otherwise indicated
T2 construct: purchased Cayman 10010183
T2 sequence (O00519 1-579): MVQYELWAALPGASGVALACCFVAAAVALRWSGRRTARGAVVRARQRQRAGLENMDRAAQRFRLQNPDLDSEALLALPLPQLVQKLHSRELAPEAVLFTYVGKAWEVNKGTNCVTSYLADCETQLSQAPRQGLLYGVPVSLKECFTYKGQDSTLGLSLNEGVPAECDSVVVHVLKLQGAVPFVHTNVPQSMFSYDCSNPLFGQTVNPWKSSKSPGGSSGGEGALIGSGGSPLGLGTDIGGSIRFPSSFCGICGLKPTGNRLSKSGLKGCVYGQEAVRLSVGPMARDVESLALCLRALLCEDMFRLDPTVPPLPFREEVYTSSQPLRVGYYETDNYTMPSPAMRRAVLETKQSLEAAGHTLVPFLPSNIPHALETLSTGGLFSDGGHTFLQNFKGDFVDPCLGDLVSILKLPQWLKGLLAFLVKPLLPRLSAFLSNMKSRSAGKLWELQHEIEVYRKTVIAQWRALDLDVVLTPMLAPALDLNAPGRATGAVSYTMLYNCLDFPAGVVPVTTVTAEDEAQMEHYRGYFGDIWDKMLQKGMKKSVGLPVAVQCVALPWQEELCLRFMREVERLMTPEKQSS

[3] = T = 0 min (substrate added immediately), read-out: MAGL (T = 0 min) IC50
[4] = T = 30 min (30 minute incubation), read-out: MAGL (T = 30 min) IC50

Row | Structure (SMILES) | pIC50 [1, 3] | pIC50 [1, 4] | MAGL kinact/KI [2] | pIC50 (human recombinant FAAH)
1 | O=C(O[C@H](CO)C(F)(F)F)N1CCC(Oc2ncc(C(F)(F)F)cc2Cl)CC1 [Example 63] | 8.15 | 9.00 | 7347 1/s per M | 5.52
2 | CC(C)c1cccc(S(=O)(=O)N2CCOC3(CCN(C(=O)O[C@H](CO)C(F)(F)F)CC3)C2)c1 [Example 66] | 8.52 | 9.70 | 430364 1/s per M | 5.10
3 | C#Cc1ccc(S(=O)(=O)N2CCOC3(CCN(C(=O)O[C@H](CO)C(F)(F)F)CC3)C2)cc1 [Example 68] | 7.25 | 8.22 | 16586 1/s per M | < 4.52
4 | Cc1ccc(S(=O)(=O)N2CCOC3(CCN(C(=O)O[C@H](CO)C(F)(F)F)CC3)C2)cc1F [Example 73] | 8.30 | 9.00 | 96515 1/s per M | < 4.52
5 | CCc1cccc(S(=O)(=O)N2CCOC3(CCN(C(=O)O[C@H](CO)C(F)(F)F)CC3)C2)c1 [Example 77] | 8.30 | 9.00 | 403739 1/s per M | 5.23
6 | CC(C)Oc1ccc(S(=O)(=O)N2CCOC3(CCN(C(=O)O[C@H](CO)C(F)(F)F)CC3)C2)cc1 [Example 78] | 8.22 | 9.00 | 16865 1/s per M | 5.59
7 | C#Cc1cccc(S(=O)(=O)N2CCOC3(CCN(C(=O)O[C@H](CO)C(F)(F)F)CC3)C2)c1 [Example 79] | 8.15 | 9.00 | 26513 1/s per M | 5.00
8 | C#Cc1ccc(-n2ccc(C3CCN(C(=O)O[C@H](CO)C(F)(F)F)CC3)n2)cc1 [Example 80] | 8.15 | 9.00 | 126124 1/s per M | 5.10
9 | C#Cc1ccc(-n2ccc([C@H]3[C@@H]4CN(C(=O)O[C@H](CO)C(F)(F)F)C[C@@H]43)n2)cc1 [Example 81] | 8.10 | 9.00 | 45138 1/s per M | 5.12
10 | O=C(O[C@H](CO)C(F)(F)F)N1CCC2(CC1)CN(S(=O)(=O)c1cccc(Cl)c1)CCO2 [Example 83] | 7.72 | 8.70 | 21997^d 1/s per M | < 4.52
11 | O=C(O[C@H](CO)C(F)(F)F)N1CCC2(CC1)CN(S(=O)(=O)c1ccccc1F)CCO2 [Example 84] | 7.59 | 8.70 | 49166 1/s per M | 4.72
12 | CCN([C@H]1COC2(CCN(C(=O)O[C@H](CO)C(F)(F)F)CC2)C1)S(=O)(=O)c1ccccc1 [Example 92, (2R)-1,1,1-Trifluoro-3-hydroxypropan-2-yl (3R)-3-[ethyl(phenylsulfonyl)amino]-1-oxa-8-azaspiro[4.5]decane-8-carboxylate] | 8.22 | 9.00 | 215500 1/s per M | < 4.52
13 | CN([C@H]1COC2(CCN(C(=O)O[C@H](CO)C(F)(F)F)CC2)C1)S(=O)(=O)C1CC1 [Example 93, (2R)-1,1,1-Trifluoro-3-hydroxypropan-2-yl (3R)-3-[(cyclopropylsulfonyl)(methyl)amino]-1-oxa-8-azaspiro[4.5]decane-8-carboxylate] | 6.50 | 7.54 | 3282 1/s per M | < 4.52
14 | CN([C@@H]1COC2(CCN(C(=O)O[C@H](CO)C(F)(F)F)CC2)C1)S(=O)(=O)C1CC1 [Example 94, (2R)-1,1,1-Trifluoro-3-hydroxypropan-2-yl (3S)-3-[(cyclopropylsulfonyl)(methyl)amino]-1-oxa-8-azaspiro[4.5]decane-8-carboxylate] | 6.50 | 7.57 | 3764 1/s per M | < 4.52
15 | O=C(O[C@H](CO)C(F)(F)F)N1CCC2(CC1)CCN(C(=O)c1ccccc1F)C2 [Example 98, (2R)-1,1,1-Trifluoro-3-hydroxypropan-2-yl 2-(2-fluorobenzoyl)-2,8-diazaspiro[4.5]decane-8-carboxylate] | 7.15 | 8.15 | 4933 1/s per M | < 4.52
16 | O=C(O[C@H](CO)C(F)(F)F)N1CCC2(CC1)CCN(S(=O)(=O)c1ccccc1)C2 [Example 105, (2R)-1,1,1-Trifluoro-3-hydroxypropan-2-yl 2-(phenylsulfonyl)-2,8-diazaspiro[4.5]decane-8-carboxylate] | 7.66 | 8.70 | 59993 1/s per M | 5.01
17 | CN([C@H]1COC2(CCN(C(=O)O[C@H](CO)C(F)(F)F)CC2)C1)S(=O)(=O)CC1CC1 [Example 106, (2R)-1,1,1-Trifluoro-3-hydroxypropan-2-yl (3R)-3-{[(cyclopropylmethyl)sulfonyl](methyl)amino}-1-oxa-8-azaspiro[4.5]decane-8-carboxylate] | 6.62 | 7.70 | 2856 1/s per M | < 4.52
18 | CC(C)N([C@H]1COC2(CCN(C(=O)O[C@H](CO)C(F)(F)F)CC2)C1)S(=O)(=O)c1ccccc1 [Example 107] | 8.00 | 9.00 | 127771 1/s per M | < 4.52
19 | O=C(O[C@H](CO)C(F)(F)F)N1CCC2(CC1)CCN(C(=O)C1CCCC1)C2 [Example 124] | 7.04 | 8.00 | 6720 1/s per M | < 4.52
20 | O=C(O[C@H](CO)C(F)(F)F)N1CCC2(CC1)CCN(C(=O)c1nccs1)C2 [Example 125] | 7.19 | 8.15 | 5464 1/s per M | < 4.52
21 | O=C(O[C@H](CO)C(F)(F)F)N1CCC2(CC1)CCN(C(=O)c1ccccc1)C2 [Example 126] | 6.95 | 7.92 | 3723 1/s per M | < 4.52
22 | O=C(O[C@H](CO)C(F)(F)F)N1CCC2(CC1)CCN(C(=O)C1CCC(F)(F)CC1)C2 [Example 127] | 6.79 | 7.77 | 2067 1/s per M | < 4.52
23 | O=C(O[C@H](CO)C(F)(F)F)N1CCC2(CC1)CCN(C(=O)N1CCCC1)C2 [Example 133] | 6.76 | 7.70 | 3614 1/s per M | 5.32
24 | O=C(O[C@H](CO)C(F)(F)F)N1CCC2(CC1)CCN(S(=O)(=O)c1nccs1)C2 [Example 134] | 7.02 | 8.15 | 9930 1/s per M | < 4.63
25 | O=C(O[C@H](CO)C(F)(F)F)N1CCC2(CC1)CCN(S(=O)(=O)c1cccnc1)C2 [Example 135] | 6.77 | 7.89 | 4723 1/s per M | < 4.52
26 | CN([C@H]1COC2(CCN(C(=O)O[C@H](CO)C(F)(F)F)CC2)C1)S(=O)(=O)c1nccs1 [Example 136] | 7.28 | 8.30 | 15516 1/s per M | < 4.52
27 | CN([C@H]1COC2(CCN(C(=O)O[C@H](CO)C(F)(F)F)CC2)C1)S(=O)(=O)CC(F)(F)F [Example 137] | 6.90 | 7.96 | 7582 1/s per M | < 4.52
28 | CN([C@H]1COC2(CCN(C(=O)O[C@H](CO)C(F)(F)F)CC2)C1)S(=O)(=O)c1cnn(C)c1 [Example 138] | 6.73 | 7.82 | 2154 1/s per M | 4.79
29 | CC(C)CS(=O)(=O)N(C)[C@H]1COC2(CCN(C(=O)O[C@H](CO)C(F)(F)F)CC2)C1 [Example 139] | 6.82 | 7.82 | 3058 1/s per M | < 4.52
30 | CN([C@H]1COC2(CCN(C(=O)O[C@H](CO)C(F)(F)F)CC2)C1)S(=O)(=O)CC1CCC1 [Example 140] | 7.03 | 8.05 | 4595 1/s per M | < 4.52
